{"source": "paper PMC7176092", "about": "“Development of the first in vivo GPR17 ligand through an iterative drug discovery pipeline: A novel disease-modifying strategy for multiple sclerosis” (PLoS ONE, 2020)", "key": {"[1]": {"experiment": "In vivo mouse DMPK study, single 1 mg/kg subcutaneous dose", "description": "In vivo DMPK studies were performed as an external service by Aptuit (Verona, Italy) according to standard procedures.\nTwo compounds were tested in a single dose pharmacokinetic (PK) study in mouse, in which a 1 mg/kg single dose solution (15% Ethanol, 85% PEG400) was administered by subcutaneous injection to naïve CD1 male mice from accredited supplier (n = 3), weighed prior to dosing. Blood samples were collected for 8 time-points (0.25, 0.50, 1, 2, 4, 6, 8, 24 hours).\nPlasma samples were prepared and diluted according standard in-house procedures and stored at approximately -20°C, pending analysis. Briefly, blood samples were collected into tubes containing anticoagulant (K3EDTA), stored on ice and centrifuged to prepare plasma within 2 hours of collection. Plasma samples were diluted in Hepes Buffer and deproteinised using CH3CN containing rolipram as internal reference compound for positive ion mode, according standard procedure (20 ng/ml). After vortexing and centrifugation (3000 rpm per 10 min), sample supernatants were transferred in 96 well plate and diluted with water for analysis.\nBlood concentrations of the tested compounds and their metabolites were detected through Liquid Chromatography-tandem Mass Spectrometry (QTRAP® 4000 LC-MS/MS System, Sciex). The results for each test compound in plasma were subjected to non-compartmental PK analysis using WinNonlin Phoenix v.6.3 for generation of appropriate PK parameters, reported along with graphical representation of the mean plasma concentration profiles over time.\nAt 24 hours, animals were sacrificed, and brains were collected and processed for measuring compound concentrations through mass spectrometry."}, "ADR2": {"biological_target": "T1, ADR2 (Homo sapiens, UniProt P07550)", "T1 construct": "Eurofins Cerep (external service)", "T1 sequence (P07550 whole entry)": "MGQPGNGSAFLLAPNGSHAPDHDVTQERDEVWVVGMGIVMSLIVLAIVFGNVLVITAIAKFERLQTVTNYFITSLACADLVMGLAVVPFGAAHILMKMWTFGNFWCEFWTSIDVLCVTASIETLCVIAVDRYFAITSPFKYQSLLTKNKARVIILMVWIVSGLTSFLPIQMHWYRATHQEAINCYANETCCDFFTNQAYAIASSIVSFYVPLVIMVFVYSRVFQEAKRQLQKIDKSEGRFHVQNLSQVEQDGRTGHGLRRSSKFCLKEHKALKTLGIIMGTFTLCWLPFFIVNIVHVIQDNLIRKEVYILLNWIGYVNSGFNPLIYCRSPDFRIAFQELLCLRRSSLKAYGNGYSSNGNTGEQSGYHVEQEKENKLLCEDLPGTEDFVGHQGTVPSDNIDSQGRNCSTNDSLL", "experiment": "Binding assay ADR2 (reference ICI 118551)", "settings": "100 nM"}, "CCR2": {"biological_target": "T2, CCR2 (Homo sapiens, UniProt P41597)", "T2 construct": "Eurofins Cerep (external service)", "T2 sequence (P41597 whole entry)": "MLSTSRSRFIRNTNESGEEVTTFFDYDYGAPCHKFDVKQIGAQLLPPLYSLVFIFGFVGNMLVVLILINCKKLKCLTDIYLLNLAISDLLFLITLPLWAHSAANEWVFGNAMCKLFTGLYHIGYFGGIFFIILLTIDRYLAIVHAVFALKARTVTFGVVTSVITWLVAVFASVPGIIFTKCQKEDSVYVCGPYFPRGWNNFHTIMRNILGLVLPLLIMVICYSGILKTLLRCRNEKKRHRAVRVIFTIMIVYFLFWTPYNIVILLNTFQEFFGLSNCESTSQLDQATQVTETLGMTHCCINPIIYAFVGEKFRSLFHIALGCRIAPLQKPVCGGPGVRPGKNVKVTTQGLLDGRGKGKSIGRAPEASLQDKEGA", "experiment": "Binding assay CCR2", "settings": "100 nM"}, "M1": {"biological_target": "T3, M1 (Homo sapiens, UniProt P11229)", "T3 construct": "Eurofins Cerep (external service)", "T3 sequence (P11229 1-460)": "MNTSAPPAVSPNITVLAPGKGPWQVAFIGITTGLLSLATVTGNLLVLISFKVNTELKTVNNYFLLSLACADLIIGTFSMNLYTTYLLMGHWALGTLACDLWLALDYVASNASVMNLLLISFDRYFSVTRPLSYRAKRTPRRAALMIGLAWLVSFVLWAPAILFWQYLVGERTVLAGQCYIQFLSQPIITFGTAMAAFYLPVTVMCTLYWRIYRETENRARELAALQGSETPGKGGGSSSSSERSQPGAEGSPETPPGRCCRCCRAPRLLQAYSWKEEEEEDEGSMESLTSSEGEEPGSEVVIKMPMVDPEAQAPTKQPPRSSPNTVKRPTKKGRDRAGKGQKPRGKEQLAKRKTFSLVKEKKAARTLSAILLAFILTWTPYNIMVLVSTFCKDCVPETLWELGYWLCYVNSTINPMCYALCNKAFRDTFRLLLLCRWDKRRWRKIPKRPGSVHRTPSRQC", "experiment": "Binding assay M1", "settings": "100 nM"}, "CCR4": {"biological_target": "T4, CCR4 (Homo sapiens, UniProt P51679)", "T4 sequence (P51679 1-360)": "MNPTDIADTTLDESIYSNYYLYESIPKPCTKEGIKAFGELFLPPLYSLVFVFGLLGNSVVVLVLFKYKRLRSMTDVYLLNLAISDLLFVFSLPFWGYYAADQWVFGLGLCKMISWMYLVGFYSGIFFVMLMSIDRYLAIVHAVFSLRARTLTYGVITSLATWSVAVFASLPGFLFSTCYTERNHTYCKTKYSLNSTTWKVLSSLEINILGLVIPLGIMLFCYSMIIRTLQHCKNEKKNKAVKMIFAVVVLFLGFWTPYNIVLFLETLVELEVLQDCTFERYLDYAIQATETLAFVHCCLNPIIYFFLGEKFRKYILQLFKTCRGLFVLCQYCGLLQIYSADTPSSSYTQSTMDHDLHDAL", "experiment": "Cellular functional assay CCR4"}, "CCR6": {"biological_target": "T5, CCR6 (Homo sapiens, UniProt P51684)", "T5 sequence (P51684 1-374)": "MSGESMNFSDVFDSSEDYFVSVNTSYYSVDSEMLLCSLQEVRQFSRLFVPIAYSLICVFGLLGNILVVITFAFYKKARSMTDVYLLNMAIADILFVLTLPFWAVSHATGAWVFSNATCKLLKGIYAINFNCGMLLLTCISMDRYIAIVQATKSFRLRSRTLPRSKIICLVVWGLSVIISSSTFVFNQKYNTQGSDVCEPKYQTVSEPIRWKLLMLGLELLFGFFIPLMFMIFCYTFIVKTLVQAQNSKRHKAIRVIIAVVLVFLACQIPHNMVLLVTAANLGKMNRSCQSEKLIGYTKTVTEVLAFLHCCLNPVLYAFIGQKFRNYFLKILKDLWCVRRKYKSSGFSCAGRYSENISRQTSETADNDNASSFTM", "experiment": "Cellular functional assay CCR6"}, "[2]": {"settings": "mouse, sc, plasma, 1 mg/kg s.c. single dose, CD1 male mice"}, "[3]": {"settings": "mean of 2, read-out: % Of control specific binding, Mean"}, "[4]": {"settings": "read-out: % Inhibition of control specific binding"}, "[5]": {"settings": "single replicates 1 and 2, 0.1 µM"}, "[6]": {"settings": "single replicates 1 and 2, read-out: % Of control specific binding"}, "[7]": {"settings": "antagonist effect, 100 nM, single replicates 1st and 2nd, 0.1 µM"}, "[8]": {"settings": "read-out: % Inhibition of control agonist response"}, "[9]": {"settings": "read-out: Agonist Response (% of Control), Mean, antagonist effect, 100 nM, mean of 2"}}, "note": "Where “and” joins values, the source holds several entries; their conditions need not be identical. Equal entries are not always repeated. Where two headings read alike, the source gives them in different places.", "data": [{"smiles": "Cc1ccc(-c2nnc(SCC(=O)Nc3nccs3)[nH]2)cc1", "note": "[Compound 9]", "values": [{"measurement": "Plasma concentration, individual mice", "setting": "[1]; 0.50 h, 1 mg/kg s.c., 1 mg/kg", "value": "0.0717 µg/mL and 0.0983 µg/mL and 0.0308 µg/mL"}, {"measurement": "Plasma concentration, individual mice", "setting": "[1]; 1.00 h, 1 mg/kg s.c., 1 mg/kg", "value": "0.0143 µg/mL and 0.0385 µg/mL and 0.0763 µg/mL"}, {"measurement": "Plasma concentration, individual mice", "setting": "[1]; 2.00 h, 1 mg/kg s.c., 1 mg/kg", "value": "0.0056 µg/mL and 0.0103 µg/mL and 0.0298 µg/mL"}, {"measurement": "Plasma concentration, individual mice", "setting": "[1]; 4.00 h, 1 mg/kg s.c., 1 mg/kg", "value": 0.0026, "unit": "µg/mL"}, {"measurement": "concentration at 0.5 h", "setting": "[1]; male, CD1, mouse, plasma, sc, 1 mg/kg, 0.50 h, 1 mg/kg s.c., n=3 mice, read-out: Plasma concentration, Mean", "value": 0.0669, "unit": "µg/mL"}, {"measurement": "concentration at 1 h", "setting": "[1]; male, CD1, mouse, plasma, sc, 1 mg/kg, 1.00 h, 1 mg/kg s.c., n=3 mice, read-out: Plasma concentration, Mean", "value": 0.043, "unit": "µg/mL"}, {"measurement": "concentration at 2 h", "setting": "[1]; male, CD1, mouse, plasma, sc, 1 mg/kg, 2.00 h, 1 mg/kg s.c., n=3 mice", "value": 0.0152, "unit": "µg/mL"}, {"measurement": "concentration at 4 h", "setting": "[1]; male, CD1, mouse, plasma, sc, 1 mg/kg, 4.00 h, 1 mg/kg s.c., read-out: Plasma concentration, Mean", "value": 0.0028, "unit": "µg/mL"}, {"measurement": "concentration at 4 h", "setting": "[1]; male, CD1, mouse, plasma, sc, 1 mg/kg, 4.00 h, 1 mg/kg s.c., read-out: Plasma concentration, individual mice", "value": 0.0029, "unit": "µg/mL"}, {"measurement": "concentration at 4 h", "setting": "[1]; male, CD1, mouse, plasma, sc, 1 mg/kg, plasma, 1 mg/kg s.c. single dose, CD1 male mice, read-out: Clast", "value": 0.00481, "unit": "µg/mL"}, {"measurement": "AUC(0-t)", "setting": "[1]; [2]", "value": 0.0858, "unit": "µg·h/mL"}, {"measurement": "Cmax", "setting": "[1]; [2]", "value": 0.0723, "unit": "µg/mL"}, {"measurement": "Tmax", "setting": "[1]; [2]", "value": 30, "unit": "min"}, {"measurement": "half-life", "setting": "[1]; [2]", "value": 65.4, "unit": "min"}, {"measurement": "Metabolites found in vivo", "setting": "[1]; plasma after s.c. administration in mice", "value": "no detectable metabolites"}, {"measurement": "Tlast", "setting": "[1]; plasma, 1 mg/kg s.c. single dose, CD1 male mice", "value": 4.00, "unit": "h"}, {"measurement": "remaining activity at 0.1 µM", "setting": "ADR2; [3]", "value": 102, "unit": "%"}, {"measurement": "inhibition at 0.1 µM", "setting": "ADR2; [4]", "value": -2, "unit": "%"}, {"measurement": "% Of control specific binding", "setting": "ADR2; [5]", "value": 108.1, "unit": "%"}, {"measurement": "remaining activity at 0.1 µM", "setting": "ADR2; [6]", "value": 95.8, "unit": "%"}, {"measurement": "remaining activity at 0.1 µM", "setting": "CCR2; [3]", "value": 88.4, "unit": "%"}, {"measurement": "inhibition at 0.1 µM", "setting": "CCR2; [4]", "value": 12, "unit": "%"}, {"measurement": "% Of control specific binding", "setting": "CCR2; [5]", "value": 88.9, "unit": "%"}, {"measurement": "remaining activity at 0.1 µM", "setting": "CCR2; [6]", "value": 88, "unit": "%"}, {"measurement": "remaining activity at 0.1 µM", "setting": "M1; [3]", "value": 108, "unit": "%"}, {"measurement": "inhibition at 0.1 µM", "setting": "M1; [4]", "value": -8, "unit": "%"}, {"measurement": "% Of control specific binding", "setting": "M1; [5]", "value": 110.2, "unit": "%"}, {"measurement": "remaining activity at 0.1 µM", "setting": "M1; [6]", "value": 105, "unit": "%"}, {"measurement": "Agonist Response (% of Control)", "setting": "CCR4; [7]", "value": "60.7% and 88.2%"}, {"measurement": "inhibition at 0.1 µM", "setting": "CCR4; [8]", "value": -0.1, "unit": "%"}, {"measurement": "activity at 0.1 µM", "setting": "CCR4; [9]", "value": 74.4, "unit": "%"}, {"measurement": "Agonist Response (% of Control)", "setting": "CCR6; [7]", "value": 105.9, "unit": "%"}, {"measurement": "inhibition at 0.1 µM", "setting": "CCR6; [8]", "value": -0.3, "unit": "%"}, {"measurement": "activity at 0.1 µM", "setting": "CCR6; [9]", "value": 106, "unit": "%"}, {"measurement": "activity at 0.1 µM", "setting": "CCR6; read-out: Agonist Response (% of Control), antagonist effect, 100 nM, single replicates 1st and 2nd", "value": 105, "unit": "%"}]}]}
